The values below come from the OligoGym collection.

Only the 19 paired bases of each siRNA are shown; overhangs and chemistry are not given here.

Among the targets are DBI; PLK1; Renilla luciferase.
Common to all, as to test: five studies, different assays
Common to all, as to details: siRNA
Also: test concentration or dose not given here.

“sense UGGGAUGCCUGGAAUGAGC / antisense GCUCAUUCCAGGCAUCCCA”: in the data set with DBI, the target inhibition was determined as 4.9%.

Regarding “sense GAUGUCCAUGGAAAUAUCC / antisense GGAUAUUUCCAUGGACAUC”, the target inhibition with PLK1 is 43.9%.

On to “sense AAGAGCUAAAGAAAAAAUA / antisense UAUUUUUUCUUUAGCUCUU”, for which, in the data set with DBI, the target inhibition came to 68%.

Regarding “sense AGAUGCCAUGAAAGCUUAC / antisense GUAAGCUUUCAUGGCAUCU”, the target inhibition in the data set with DBI was -9.13%.

With “sense CAGUUUCGAGGUGGAUGUG / antisense CACAUCCACCUCGAAACUG”, in the data set with PLK1, the target inhibition is 52.6%.

In the case of “sense UUACUGACUUUCCUUGAGU / antisense ACUCAAGGAAAGUCAGUAA”, the target inhibition in the data set with DBI is -8.35%.

Consider “sense AGAUUGUGCCUAAGUCUCU / antisense AGAGACUUAGGCACAAUCU”, for which the target inhibition with PLK1 amounted to 68.5%.

As to “sense AGAAUGAAUACAGUAUUCC / antisense GGAAUACUGUAUUCAUUCU”, the target inhibition with PLK1 worked out at 58%.

In the case of “sense UAUUUCCGCAAUUACAUGA / antisense UCAUGUAAUUGCGGAAAUA”, the target inhibition with PLK1 was found to be 57.1%.

“sense ACUGAGACAAUGCCUUGUU / antisense AACAAGGCAUUGUCUCAGU”: the target inhibition with DBI amounted to 6.01%.

As to “sense AAGAUGCCAUGAAAGCUUA / antisense UAAGCUUUCAUGGCAUCUU”, the target inhibition with DBI amounted to 50.7%.

On to “sense AAAGUAGAAGAGCUAAAGA / antisense UCUUUAGCUCUUCUACUUU”, for which the target inhibition in the data set with DBI amounted to 71.8%.

Regarding “sense AAACGAUUACUGACUUUCC / antisense GGAAAGUCAGUAAUCGUUU”, in the data set with DBI, the target inhibition is -18.6%.

Consider “sense GGGCGGCUUUGCCAAGUGC / antisense GCACUUGGCAAAGCCGCCC”, for which the target inhibition with PLK1 was 30.6%.

As for “sense AUGACUCAACACGCCUCAU / antisense AUGAGGCGUGUUGAGUCAU”, in the data set with PLK1, the target inhibition was found to be 58.4%.

As to “sense AGAUCACCCUCCUUAAAUA / antisense UAUUUAAGGAGGGUGAUCU”, in the data set with PLK1, the target inhibition turned out to be 72.5%.

For “sense UGAAAGCUUACAUCAACAA / antisense UUGUUGAUGUAAGCUUUCA”, the target inhibition with DBI stood at 33.7%.

As for “sense CAGCAUAUCUUGAACCAUU / antisense AAUGGUUCAAGAUAUGCUG”, the target inhibition in the data set with Renilla luciferase turned out to be 83.7%.

Turning to “sense AUGAAGAUCUGGAGGUGAA / antisense UUCACCUCCAGAUCUUCAU”, in the data set with PLK1, the target inhibition was found to be 55%.

With “sense UUUGAGACUUCUUGCCUAA / antisense UUAGGCAAGAAGUCUCAAA”, the target inhibition in the data set with PLK1 was 82.2%.
